Laboratory results as given in paper PMC11460631, “Inhibition of transient receptor potential vanilloid 3 channels by antimalarial hydroxychloroquine alleviates TRPV3-dependent dermatitis” (The Journal of Biological Chemistry, 2024).
One block for each compound: values may come before it.

Assays:
TRPV3 [1] = biological target: T1, TRPV3 (Homo sapiens, UniProt Q8NET8); assay: Calcium imaging (Fluo-4/AM) of TRPV3-expressing HEK293T cells; format: cell-based
T1 construct: YFP or GFP; expressed in transfected cells; host or cells: HEK293T
T1 sequence (Q8NET8 1-790): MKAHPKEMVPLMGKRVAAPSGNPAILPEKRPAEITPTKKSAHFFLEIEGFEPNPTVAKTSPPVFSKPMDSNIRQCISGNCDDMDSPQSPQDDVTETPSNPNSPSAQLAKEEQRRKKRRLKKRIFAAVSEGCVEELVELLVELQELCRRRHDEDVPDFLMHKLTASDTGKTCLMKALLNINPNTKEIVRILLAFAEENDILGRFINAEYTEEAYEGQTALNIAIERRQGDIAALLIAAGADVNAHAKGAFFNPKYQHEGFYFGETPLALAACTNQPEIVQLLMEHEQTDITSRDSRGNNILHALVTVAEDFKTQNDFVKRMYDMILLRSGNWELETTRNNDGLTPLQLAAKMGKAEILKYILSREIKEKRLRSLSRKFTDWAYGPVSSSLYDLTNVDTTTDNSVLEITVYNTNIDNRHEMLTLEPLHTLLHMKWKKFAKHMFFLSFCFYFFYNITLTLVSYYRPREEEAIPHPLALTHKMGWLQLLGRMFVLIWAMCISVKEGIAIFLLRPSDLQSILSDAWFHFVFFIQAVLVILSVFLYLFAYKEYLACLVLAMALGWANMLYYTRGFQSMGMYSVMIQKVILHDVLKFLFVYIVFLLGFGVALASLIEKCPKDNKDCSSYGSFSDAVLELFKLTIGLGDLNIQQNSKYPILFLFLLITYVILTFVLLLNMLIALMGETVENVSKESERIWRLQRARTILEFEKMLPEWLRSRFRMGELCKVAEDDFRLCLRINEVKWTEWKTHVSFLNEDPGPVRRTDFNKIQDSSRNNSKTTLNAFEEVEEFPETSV
Procedure: (§1) HEK293T cells are cultured using Dulbecco's modified Eagle's medium containing 10% fetal bovine serum and 1% penicillin-streptomycin in a cell incubator with 5% CO2 at 37 °C. Plasmids of murine TRPV1, TRPV4, TRPM8, and human TRPV3, TRPA1 are labeled with YFP or GFP as indicators for subsequent electrophysiological recordings. Complementary DNA constructs of ion channels were transiently transfected with Lipofectamine 3000 (Invitrogen). And 12 to 18 h after transient transfection, electrophysiological recordings were performed.
Calcium imaging assays were performed as described previously ([37]). Transiently transfected HEK293 cells seeded on 25 mm coverslips were washed twice with an extracellular solution containing 140 mM NaCl, 5 mM KCl, 2 mM MgCl2, 2 mM CaCl2, 10 mM glucose, and 10 mM Hepes (pH 7.4), followed by incubation in 2 ml of extracellular solution supplemented with 2 μM Fluo-4/AM as a Molecular Probes at room temperature for 60 min. Fluorescence images of HEK293T cells were acquired with a Nikon Eclipse Ti2 microscope with an optiMOS charge-coupled device camera controlled by the Ocular Software ([…]; https://www.photometrics.com/products/ocular).

TRPV3 [2] = biological target: T1, TRPV3; assay: Single-channel recordings of TRPV3 in the inside-out configuration; format: cell-based; settings: 1 mM 2-APB alone, −80 mV
Procedure: as §1
(§2) Patch-clamp recordings were carried out with a HEKA EPC10 amplifier controlled by PatchMaster software (HEKA; https://www.heka.com/products/products_main.html#soft_pm) ([36]). Patch pipettes were prepared from borosilicate glass and fire-polished to the resistance of 3 to 8 MΩ by P-97 puller for whole-cell recordings. For single-channel recordings, patch pipettes were fire-polished to a higher resistance of 6 to 10 MΩ. Both bath solution and pipette solution contained 130 mM NaCl, 10 mM glucose, 0.2 mM EDTA, and 3 mM Hepes and were adjusted to pH 7.2 to 7.4 with NaOH. Whole-cell recordings and single-channel recordings were performed at ± 80 mV. The current was sampled at 10 kHz and filtered at 2.9 kHz. All recordings were performed at room temperature (25 °C). A gravity-driven system (RSC-200, Bio-Logic) with freely rotated perfusion tubes was used for the perfusion of ligands. Bath and ligand solutions were delivered through separate tubes to minimize the mixing of solutions. Patch pipette holding cells were placed in front of the perfusion tube outlet for perfusion. Igor Pro versions 5.05 and 9.05 (WaveMetrics; https://www.wavemetrics.com/products/igorpro) were used to analyze the data.

TRPV3 [3] = biological target: T1, TRPV3; assay: Whole-cell patch-clamp recordings of TRPV3 currents in transfected HEK293T cells; format: cell-based; settings: 1 mM agonist, whole-cell, n = 5 cells
Procedure: as §1
as §2, with “perfusion.” for “perfusion. Igor Pro versions 5.05 and 9.05 (WaveMetrics; https://www.wavemetrics.com/products/igorpro) were used to analyze the data.”
All data from whole-cell recordings were analyzed in Igor Pro (WaveMetrics). IC50 values were determined by fitting the Hill equation to concentration-response relationships. Data are shown as mean ± SEM. Statistical significance between two groups was conducted with an unpaired two-tailed t test, and statistical significance among multiple groups was conducted with one-way ANOVA using Dunnett’s multiple comparisons test or Tukey's post hoc test. Differences were regarded as statistically significant with ∗, p < 0.05; ∗∗, p < 0.01; ∗∗∗, p < 0.001; ∗∗∗∗, and p < 0.0001; N.S., no significance.

C57BL/6J male mice = assay: Carvacrol-induced AD-like mouse model: skin appearance scores and H&E epidermal thickness; format: in vivo; settings: score of 0 to 4, topical, 5 days; for erythema score: 2% carvacrol alone or with HCQ 2 mg/ml or DXM 1 mg/ml
Procedure: (§3) We therefore generated a carvacrol-induced AD mouse model to test the effect of HCQ.
To investigate the effect of HCQ on carvacrol-induced dermatitis in animals, C57BL/6J male mice (aged 6 weeks) were obtained from the Animal Experimental Center of Hangzhou Medical College (Hangzhou, Zhejiang Province). Mice were housed and maintained in an environment with a 12-h light/dark cycle and a controlled temperature of 22.0 ± 2.0 °C. Food and water were accessible ad libitum. All the animal procedures were approved by the Institutional Animal Care & Use Committee of Zhejiang Center of Laboratory Animals (ZJCLA).
(§4) To generate an AD-like mice model, 2% carvacrol (dissolved in 30% ethanol solution) was topically smeared onto the mice dorsum 1 day after hair removal with a depilatory cream (Vetin Depilatory Cream). Mice received a topical administration of an equal volume (200 μl) of 2% carvacrol or in the presence of 2 mg/ml HCQ. […] After the application of carvacrol for 5 days, the external appearance of mice was photographed and then sampled. The external appearance was graded based on three aspects: thickness, erythema/bleeding, and dryness/desquamation, with severity assessed on a score of 0 to 4. The degree of thickness was measured by the thickness of the skin in H&E staining. Skin tissues were either fixed in 4% paraformaldehyde or placed in PBS buffer containing 1% protease inhibitor, facilitating subsequent steps of paraffin embedding or ELISA experiments.
Mice were sacrificed 24 h after the last dose of treatment. Mouse dorsal skin was removed with scissors and forceps before being fixed with 4% paraformaldehyde. Paraffin-embedded tissues were sectioned and stained with H&E. Pictures of stained sections were acquired with a Nikon Eclipse Ti-S microscope with a charge-coupled device camera (DS-Ri2, Nikon).

[4] = system: TNF-α, IL-6, IgE, IL-4 in mouse dorsal skin tissues; assay: Carvacrol-induced AD-like mouse model: inflammatory factors by ELISA; format: in vivo
Procedure: as §3, §4
Animal skin tissues were placed in PBS buffer containing 1% protease inhibitors, then homogenized, and centrifuged for supernatants. Cytokine concentrations of supernatants (IL-4, IL-6, TNF-α, and IgE) were measured using ELISA kits (Tsingke) according to the manufacturer's instructions. The absorption at 450 nm was measured by a microplate reader (Thermo Multiskan MK3).

[5] = DXM 1 mg/ml topical with 2% carvacrol

- calcium influx, area under the curve (AUC) of 2-APB activation (TRPV3 [1]; 1 mM 2-APB alone): 22.92 ± 1.44
- TRPV3 channel open probability (Po) (TRPV3 [2]): 0.89 ± 0.06
- single-channel conductance (TRPV3 [2]): 90.69 ± 2.67 pS
- wash-off time constant of TRPV3 current (TRPV3 [3]): 4.05 ± 0.73 s
SMILES: NCCOB(c1ccccc1)c1ccccc1 [2-APB, 2-aminoethoxydiphenylborate]

SMILES: C[C@@H]1C[C@H]2[C@@H]3CCC4=CC(=O)C=C[C@]4(C)[C@@]3(F)[C@@H](O)C[C@]2(C)[C@@]1(O)C(=O)CO [DXM, dexamethasone]
- erythema score (C57BL/6J male mice): 2.83 ± 0.17
- effect on IL-6 and TNF-α [4, 5]: no significant effect
- effect on serum IgE levels [4, 5]: reduces
- IL-4 levels compared to the model group ([4]; mouse tissues, HCQ 2 mg/ml or DXM 1 mg/ml topical with 2% carvacrol): effectively reduced

SMILES: Cc1ccc(C(C)C)cc1O [carvacrol]
- dry desquamation score (C57BL/6J male mice; 2% carvacrol alone or with HCQ 2 mg/ml): 3.17 ± 0.31
- erythema score (C57BL/6J male mice): 3.67 ± 0.21
- wash-off time constant of TRPV3 current (TRPV3 [3]): 1.43 ± 0.38 s

SMILES: C[C@H](CCC(=O)O)C[C@H](C)C[C@H](C)C(=O)/C=C(\O)[C@H](C)C[C@H](C)C/C=C/[C@@H](C)[C@@H](O)[C@@H](C)[C@@H](O)C[C@@H]1CC[C@@](C)([C@H]2CC[C@@](C)([C@@H](C)O)O2)O1 [ionomycin]
- calcium influx, area under the curve (AUC), positive control (TRPV3 [1]; 10 μM ionomycin): 41.59 ± 1.50
